BindingDB's records for doi:10.1016/j.bmcl.2006.01.105 (Wyeth Research, 2006)

Experiment: Antiviral activity against Hepatitis C virus replicon in Huh7 cells

CCCC1(C(=O)O)CCc2c1[nH]c1c(Cl)ccc(Cl)c21 (stereo unspecified) [5,8-dichloro-3-propyl-1,2,3,4-tetrahydrocyclopenta[b]indole-3-carboxylic acid]
IC50: 27 µM
